Measured values published in patent US8158615B2, “Anti-viral composition for the topical treatment of Herpes Labialis (cold sores) and method for use thereof” (priority 2006, dated 2012).
Blank lines part the entries; values can stand above or below the molecule they belong to.

Key:
[1] = Percutaneous absorption of CTC-96 from Dermal ointment Formulation, finite dose technique, Franz Diffusion Cells; assay type: in vitro ADME, human; settings: 48 hours; for Mass in Dermis / Mass in Receptor Solution / Percent of Applied Dose in Dermis / Percent of Applied Dose in Epidermis / Percent of Applied Dose in Receptor Solution: single application; for Percent of Applied Dose in Epidermis / Percent of Applied Dose in Receptor Solution / Mass in Epidermis / Mass in Surface wash / Mass, Total Recovery / Percent of Applied Dose in Surfacewash / Percent of Applied Dose, Total Recovery / Mass in Stratum Corneum / Percent of Applied Dose in Stratum Corneum: Mean ± SE; for Percent of Applied Dose in Receptor Solution: n = 3 donors; for Mass in Stratum Corneum / Percent of Applied Dose in Stratum Corneum: tape strip samples
Protocol: The percutaneous absorption of Doxovir-L® (CTC-96) was evaluated by mixing CTC-96 at two concentrations (10 mg/g and 1 mg/g) to homogeneity with a Dermal ointment Formulation (petrolatum 10% by weight, camphor 0.92% by weight, menthol 0.5% by weight, methyl salicylate 0.26% by weight, eucalyptus oil 0.30% by weight) and was determined in vitro, using the human cadaver skin model using the finite dose technique and Franz Diffusion Cells (12;13). Placebo consisted of the drug formulation without drug. The amount of Dermal ointment that is applied at each treatment was determined is shown in the following table (TABLE 1): The percutaneous absorption of Doxovir-L® (CTC-96) was determined is shown in the following table (TABLE 2 & TABLE 3): […]

HSV-1 = test: Anti-viral activity of CTC-96 extracted from Dermal Ointment Formulation; assay type: cell-based; settings: extract diluted to 2.5 μg/ml
Source text: FIG. 1 is a graphical representation showing the anti-viral activity of CTC-96 extracted from the dermal formulation.
CTC-96 was mixed to homogeneity with a Dermal Ointment Formulation (petrolatum 10% by weight, camphor 0.92% by weight, menthol 0.5% by weight, methyl salicylate 0.26% by weight, eucalyptus oil 0.30% by weight).

Herpes Labialis = settings: 1% concentration; application after the prodromal phase; cited from earlier work

Mass in Dermis ([1]; drug concentration 1 mg/g): 0 μg/cm2
Mass in Receptor Solution ([1]; drug concentration 1 mg/g): 0 μg/cm2
Percent of Applied Dose in Dermis ([1]; drug concentration 1 mg/g): 0% of Applied Dose
Percent of Applied Dose in Epidermis ([1]; drug concentration 1 mg/g): 2.20 ± 1.09% of Applied Dose
Percent of Applied Dose in Receptor Solution ([1]; drug concentration 1 mg/g): 0% of Applied Dose
Mass in Epidermis ([1]; drug concentration 1 mg/g): 0.11 ± 0.05 μg/cm2
Mass in Surface wash ([1]; drug concentration 1 mg/g): 3.17 ± 0.01 μg/cm2
Mass, Total Recovery ([1]; drug concentration 1 mg/g): 4.83 ± 0.07 μg/cm2
Percent of Applied Dose in Surfacewash ([1]; drug concentration 1 mg/g): 7.41 ± 0.30% of Applied Dose
Percent of Applied Dose, Total Recovery ([1]; drug concentration 1 mg/g): 9.67 ± 1.34% of Applied Dose
Mass in Stratum Corneum ([1]; drug concentration 1 mg/g): 0.03 ± 0.00 μg/cm2
Percent of Applied Dose in Stratum Corneum ([1]; drug concentration 1 mg/g): 0.06 ± 0.06% of Applied Dose
Mass in Dermis ([1]; drug concentration 10 mg/g): 0 μg/cm2
Mass in Receptor Solution ([1]; drug concentration 10 mg/g): 0 μg/cm2
Percent of Applied Dose in Dermis ([1]; drug concentration 10 mg/g): 0% of Applied Dose
Percent of Applied Dose in Epidermis ([1]; drug concentration 10 mg/g): 3.63 ± 0.58% of Applied Dose
Percent of Applied Dose in Receptor Solution ([1]; drug concentration 10 mg/g): 0% of Applied Dose
Mass in Epidermis ([1]; drug concentration 10 mg/g): 1.81 ± 0.29 μg/cm2
Mass in Surface wash ([1]; drug concentration 10 mg/g): 5.41 ± 1.90 μg/cm2
Mass, Total Recovery ([1]; drug concentration 10 mg/g): 7.86 ± 1.56 μg/cm2
Percent of Applied Dose in Surfacewash ([1]; drug concentration 10 mg/g): 10.81 ± 3.79% of Applied Dose
Percent of Applied Dose, Total Recovery ([1]; drug concentration 10 mg/g): 15.72 ± 3.12% of Applied Dose
Mass in Stratum Corneum ([1]; drug concentration 10 mg/g): 0.64 ± 0.33 μg/cm2
Percent of Applied Dose in Stratum Corneum ([1]; drug concentration 10 mg/g): 1.29 ± 0.67% of Applied Dose
SMILES: CC(/C=C(/C)[O-])=NCCN=C(C)/C=C(/C)[O-].Cc1ncc[nH]1.Cc1ncc[nH]1.[Br-].[Co+3] [CTC-96]
% Inhibition Mean ± SD (HSV-1; incubated at 4° C., 3 mo): 91.5 ± 0.5%
% Inhibition Mean ± SD (HSV-1; incubated at 4° C., 6 mo): 91.5 ± 3.4%
% Inhibition Mean ± SD (HSV-1; incubated at 4° C., time 0): 91.8 ± 1.7%
% Inhibition Mean ± SD (HSV-1; incubated at 40° C., 3 mo): 90.1 ± 0.8%
% Inhibition Mean ± SD (HSV-1; incubated at 40° C., 6 mo): 92.1 ± 1.0%
% Inhibition Mean ± SD (HSV-1; incubated at 40° C., time 0): 88.8 ± 2.7%

SMILES: Nc1nc2c(ncn2CCC(CO)CO)c(=O)[nH]1 [penciclovir]
reduction in symptoms and time to healing (Herpes Labialis): 20-30%
